Test results as given in US9169260B2 (MERCK SHARP & DOHME CORP., priority 2011, dated 2015).

Target: GST tagged IRAK-4 (Homo sapiens (Human), UniProt Q9NWZ3)
Experiment: IRAK-4 Kinase Assay (IMAP fluorescence polarization)
Format: biochemical
Settings: 100 μM ATP, 30 minutes at 25° C.
Procedure, shortened: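 Activity was read by IMAP fluorescence polarization, where phosphopeptide binding to M(III) nanoparticles raises FP. The 30-minute, 25° C reaction used 100 μM ATP, 100 nM RP7030 substrate and 0.5 nM GST-IRAK-4 in pH 7.2 Tris buffer with MgCl2, DTT and Tween 20.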

Sequence of GST tagged IRAK-4 (Q9NWZ3 whole entry): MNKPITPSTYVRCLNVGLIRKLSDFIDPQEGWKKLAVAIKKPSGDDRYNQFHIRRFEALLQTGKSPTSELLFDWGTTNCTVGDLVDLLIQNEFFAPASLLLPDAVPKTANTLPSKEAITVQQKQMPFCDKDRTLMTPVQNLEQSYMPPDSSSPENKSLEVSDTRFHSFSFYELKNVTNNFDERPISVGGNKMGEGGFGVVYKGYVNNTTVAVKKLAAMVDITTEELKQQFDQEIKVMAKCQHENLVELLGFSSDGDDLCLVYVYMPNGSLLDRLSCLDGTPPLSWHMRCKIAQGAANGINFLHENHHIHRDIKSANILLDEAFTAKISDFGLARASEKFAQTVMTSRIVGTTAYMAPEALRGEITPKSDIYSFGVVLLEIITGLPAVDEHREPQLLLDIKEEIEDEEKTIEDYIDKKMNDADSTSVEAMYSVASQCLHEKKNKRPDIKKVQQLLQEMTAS

Row | IC50 [µM] | SMILES
1 | < 0.1 | CCS(=O)(=O)c1ccc(-c2cc(NC(=O)c3cnn4cccnc34)n(-c3ccc(C)cc3)n2)cc1 [Example 352, N-{3-[4-(ethylsulfonyl)phenyl]-1-(4-methylphenyl)-1H-pyrazol-5-yl}pyrazolo[1,5-a]pyrimidine-3-carboxamide]
2 | < 0.1 | Cc1ccc(-n2nc(-c3ccc(S(=O)(=O)N(C)C)cc3)cc2NC(=O)c2cnn3cccnc23)cc1 [Example 353, N-{3-[4-(dimethylsulfamoyl)phenyl]-1-(4-methylphenyl)-1H-pyrazol-5-yl}pyrazolo[1,5-a]pyrimidine-3-carboxamide]
3 | < 0.1 | Cc1ccc(-n2nc(-c3ccnc(N)c3)cc2NC(=O)c2cnn3cccnc23)cc1 [Example 355, N-[3-(2-aminopyridin-4-yl)-1-(4-methylphenyl)-1H-pyrazol-5-yl]pyrazolo[1,5-a]pyrimidine-3-carboxamide]
4 | < 0.1 | Cc1ccc(-n2nc(C3CCN(S(=O)(=O)c4sc(C)nc4C)CC3)cc2NC(=O)c2cnn3cccnc23)cc1 [Example 364, N-[3-{1-[(2,4-dimethyl-1,3-thiazol-5-yl)sulfonyl]piperidin-4-yl}-1-(4-methylphenyl)-1H-pyrazol-5-yl]pyrazolo[1,5-a]pyrimidine-3-carboxamide]
5 | < 0.1 | Cc1ccc(-n2nc(C3CCN(S(=O)(=O)C(C)C)CC3)cc2NC(=O)c2cnn3cccnc23)cc1 [Example 368, N-[3-{1-[(1-methylethyl)sulfonyl]piperidin-4-yl}-1-(4-methylphenyl)-1H-pyrazol-5-yl]pyrazolo[1,5-a]pyrimidine-3-carboxamide]

Same assay, conditions: 100 μM ATP, 30 minutes at 25° C.; μM

Row | IC50 [µM] | SMILES
6 | < 1 | Cc1ccc(-n2nc(C3=CC(=O)N(C)CC3)cc2NC(=O)c2cnn3cccnc23)cc1 [Example 354, N-[3-(1-methyl-6-oxo-1,2,3,6-tetrahydropyridin-4-yl)-1-(4-methylphenyl)-1H-pyrazol-5-yl]pyrazolo[1,5-a]pyrimidine-3-carboxamide]
7 | < 1 | Cc1ccc(-n2nc(C3CCN(S(=O)(=O)Cc4noc5ccccc45)CC3)cc2NC(=O)c2cnn3cccnc23)cc1 [Example 356, N-[3-{1-[(1,2-benzisoxazol-3-ylmethyl)sulfonyl]piperidin-4-yl}-1-(4-methylphenyl)-1H-pyrazol-5-yl]pyrazolo[1,5-a]pyrimidine-3-carboxamide]
8 | < 1 | Cc1ccc(-n2nc(C3CCN(S(=O)(=O)c4cccc5ccccc45)CC3)cc2NC(=O)c2cnn3cccnc23)cc1 [Example 357, N-{1-(4-methylphenyl)-3-[1-(naphthalen-1-ylsulfonyl)piperidin-4-yl]-1H-pyrazol-5-yl}pyrazolo[1,5-a]pyrimidine-3-carboxamide]
9 | < 1 | Cc1ccc(-n2nc(C3CCN(S(=O)(=O)Cc4ccncc4)CC3)cc2NC(=O)c2cnn3cccnc23)cc1 [Example 358, N-[1-(4-methylphenyl)-3-{1-[(pyridin-4-ylmethyl)sulfonyl]piperidin-4-yl}-1H-pyrazol-5-yl]pyrazolo[1,5-a]pyrimidine-3-carboxamide]
10 | < 1 | COc1ccc(S(=O)(=O)N2CCC(c3cc(NC(=O)c4cnn5cccnc45)n(-c4ccc(C)cc4)n3)CC2)cc1OC [Example 359, N-[3-{1-[(3,4-dimethoxyphenyl)sulfonyl]piperidin-4-yl}-1-(4-methylphenyl)-1H-pyrazol-5-yl]pyrazolo[1,5-a]pyrimidine-3-carboxamide]
11 | < 1 | Cc1ccc(-n2nc(C3CCN(S(=O)(=O)c4cc(F)cc(F)c4)CC3)cc2NC(=O)c2cnn3cccnc23)cc1 [Example 360, N-[3-{1-[(3,5-difluorophenyl)sulfonyl]piperidin-4-yl}-1-(4-methylphenyl)-1H-pyrazol-5-yl]pyrazolo[1,5-a]pyrimidine-3-carboxamide]
12 | < 1 | CCCS(=O)(=O)N1CCC(c2cc(NC(=O)c3cnn4cccnc34)n(-c3ccc(C)cc3)n2)CC1 [Example 361, N-{1-(4-methylphenyl)-3-[1-(propylsulfonyl)piperidin-4-yl]-1H-pyrazol-5-yl}pyrazolo[1,5-a]pyrimidine-3-carboxamide]
13 | < 1 | Cc1ccc(-n2nc(C3CCN(S(=O)(=O)c4ccccc4C#N)CC3)cc2NC(=O)c2cnn3cccnc23)cc1 [Example 362, N-[3-{1-[(2-cyanophenyl)sulfonyl]piperidin-4-yl}-1-(4-methylphenyl)-1H-pyrazol-5-yl]pyrazolo[1,5-a]pyrimidine-3-carboxamide]
14 | < 1 | Cc1ccc(-n2nc(C3CCN(S(=O)(=O)CCC(F)(F)F)CC3)cc2NC(=O)c2cnn3cccnc23)cc1 [Example 363, N-[1-(4-methylphenyl)-3-{1-[(3,3,3-trifluoropropyl)sulfonyl]piperidin-4-yl}-1H-pyrazol-5-yl]pyrazolo[1,5-a]pyrimidine-3-carboxamide]
15 | < 1 | Cc1ccc(-n2nc(C3CCN(S(=O)(=O)c4ccc(F)cc4)CC3)cc2NC(=O)c2cnn3cccnc23)cc1 [Example 366, N-[3-{1[(4-fluorophenyl)sulfonyl]piperidin-4-yl}-1-(4-methylphenyl)-1H-pyrazol-5-yl]pyrazolo[1,5-a]pyrimidine-3-carboxamide]
16 | < 1 | COc1ccc(S(=O)(=O)N2CCC(c3cc(NC(=O)c4cnn5cccnc45)n(-c4ccc(C)cc4)n3)CC2)cc1 [Example 367, N-[3-{1-[(4-methoxyphenyl)sulfonyl]piperidin-4-yl}-1-(4-methylphenyl)-1H-pyrazol-5-yl]pyrazolo[1,5-a]pyrimidine-3-carboxamide]
17 | < 1 | CCCCS(=O)(=O)N1CCC(c2cc(NC(=O)c3cnn4cccnc34)n(-c3ccc(C)cc3)n2)CC1 [Example 369, N-{3-[1-(butylsulfonyl)piperidin-4-yl]-1-(4-methylphenyl)-1H-pyrazol-5-yl}pyrazolo[1,5-a]pyrimidine-3-carboxamide]
18 | < 1 | Cc1ccc(-n2nc(C3CCN(S(=O)(=O)c4ccc(F)cc4F)CC3)cc2NC(=O)c2cnn3cccnc23)cc1 [Example 370, N-[3-{1-[(2,4-difluorophenyl)sulfonyl]piperidin-4-yl}-1-(4-methylphenyl)-1H-pyrazol-5-yl]pyrazolo[1,5-a]pyrimidine-3-carboxamide]
19 | > 1 | Cc1ccc(-n2nc(C3CCN(S(=O)(=O)c4cccc(C(F)(F)F)c4)CC3)cc2NC(=O)c2cnn3cccnc23)cc1 [Example 371, N-[1-(4-methylphenyl)-3-(1-{[3-(trifluoromethyl)phenyl]sulfonyl}piperidin-4-yl)-1H-pyrazol-5-yl]pyrazolo[1,5-a]pyrimidine-3-carboxamide]
20 | < 1 | COc1ccc(S(=O)(=O)N2CCC(c3cc(NC(=O)c4cnn5cccnc45)n(-c4ccc(C)cc4)n3)CC2)c(OC)c1 [Example 372, N-[3-{1-[(2,4-dimethoxyphenyl)sulfonyl]piperidin-4-yl}-1-(4-methylphenyl)-1H-pyrazol-5-yl]pyrazolo[1,5-a]pyrimidine-3-carboxamide]
21 | < 1 | Cc1ccc(-n2nc(C3CCN(S(=O)(=O)C4CCCCC4)CC3)cc2NC(=O)c2cnn3cccnc23)cc1 [Example 373, N-{3-[1-(cyclohexylsulfonyl)piperidin-4-yl]-1-(4-methylphenyl)-1H-pyrazol-5-yl}pyrazolo[1,5-a]pyrimidine-3-carboxamide]

Row | SMILES | IC50 [µM]
22 | Cc1ccc(-n2nc(C3CCN(S(=O)(=O)c4ccc(F)c(F)c4)CC3)cc2NC(=O)c2cnn3cccnc23)cc1 [Example 365] | < 1
